Results: patent publication US8552018B2, “Substituted tricyclic compounds as protein kinase inhibitors” (Arizona Board of Regents on behalf of the University of …, priority 2003, dated 2013)

What was measured:
GIST882 cell line [1] = assay: Cancer cell cytotoxicity assay (sulforhodamine B); assay type: cell-based
Experimental: (§1) To validate the hypothesis that the designed c-kit/PDGFR tyrosine kinase inhibitors mediate GIST882 cell killing and PDGFR-mediated cell killing of pancreatic cancer cell lines (CFPAC-1, PANC-1 and MIA PaCa-2), an in vitro cytotoxicity assay was performed. The GIST882 cell line used in this study has a c-kit gain-of-function mutation (K642E). […] First the cells were cultured. GIST882 cells were provided by Dr. Jonathan A. Fletcher (Dana-Farber Cancer Institute, Boston, Mass.). PANC-1 and MIAPaCa-2 cells were provided by Dr. Daniel Von Hoff (Arizona Cancer Center, Tucson, Ariz.). […] All the cell lines were incubated in a humidified incubator at 37° C. with 5% CO2 atmosphere.
(§2) After incubation for 4 days at 37° C. in a humidified incubator, the cells were fixed with 10% Trichloroacetic acid solution (Catalog No. 490-10, Sigma). Subsequently, they were labeled with 0.04% Sulforhodamine B (S9012, Sigma) in 1% acetic acid. After multiple washes to remove excess dye, 100 μl of 50 mM Tris solution was added to each well in order to dissolve the dye. The absorbance of each well was read on a plate reader (Wallac Vector^2, PerkinElmer) at the wavelength of 570 nm. Data were expressed as the percentage of survival of control calculated from the absorbance corrected for background absorbance. The surviving percent of cells was determined by dividing the mean absorbance values of the […] by the mean absorbance values of the control and multiplying by 100.

PANC-1 cells = assay: Cancer cell cytotoxicity assay (sulforhodamine B); assay type: cell-based; settings: Homo sapiens, 96 h; PANC-1, 4 days; read-out: IC50 PDGFR PANC-1
Experimental: To validate the hypothesis that the designed c-kit/PDGFR tyrosine kinase inhibitors mediate GIST882 cell killing and PDGFR-mediated cell killing of pancreatic cancer cell lines (CFPAC-1, PANC-1 and MIA PaCa-2), an in vitro cytotoxicity assay was performed. The GIST882 cell line used in this study has a c-kit gain-of-function mutation (K642E). The assay utilized the Cell Titer 965 Non-Radioactive Cell Proliferation Assay (Promega Corp., Madison, Wis.). First the cells were cultured. GIST882 cells were provided by Dr. Jonathan A. Fletcher (Dana-Farber Cancer Institute, Boston, Mass.). PANC-1 and MIAPaCa-2 cells were provided by Dr. Daniel Von Hoff (Arizona Cancer Center, Tucson, Ariz.). GIST882 cells were cultured in RPMI 1640 medium (Cat #21870-076, Invitrogen Corporation) supplemented with 300 mg/L L-glutamine, 100 unit/ml penicillin, 100 μg/ml streptomycin and 15% fetal bovine serum. PANC-1 and MIAPaCa-2 cells were maintained in RPMI 1640 medium (cat #10-040, Mediatech, Inc.) supplemented with 100 unit/ml penicillin, 100 μg/ml streptomycin and 10% fetal bovine serum. All the cell lines were incubated in a humidified incubator at 37° C. with 5% CO2 atmosphere.
as §2, with “Cells were plated at a density of 2000 to 10000 cells per well, depending on their growth rate, in 0.1 mL medium on day 0 in 96-well Falcon microtiter plates (#3072, Becton-Dickinson Labware, Lincoln Park, N.J.). On day 1, 10 μL of serial dilutions of the individual compounds were added to the plates in replicates of 4. After incubation” for “After incubation”

[2] = system: pancreatic cancer cell lines MIAPaCa-2 and PANC-1; assay: Cancer cell cytotoxicity assay, range over both pancreatic lines; assay type: cell-based; settings: potency order
Experimental: as §1
as §2, with “After multiple washes to remove excess dye, 100 μl of 50 mM Tris solution was added to each well in order to dissolve the dye.” left out

GIST882 cell line [3] = assay: GIST882 cell growth assay (Cell-Titer-Glo); assay type: cell-based
Experimental: (§3) Briefly, cells are seeded into 96-well, tissue-culture treated, opaque white plates (Thermo Electron, Vantaa, Finland), at between 5000 and 7500 cells per well, depending on the speed of cell proliferation, in 100 μl of appropriate growth medium (determined by the ATCC). Cells are then exposed to the appropriate concentration of drug or an equal amount of DMSO (drug diluent) and allowed to grow in its presence for 96 hours. Following this, 100 μl of Cell-Titer-Glo reagent (Promega, Inc., Madison, Wis.) is added to each well. Plates are then shaken for 2 minutes at room temperature to allow for cell lysis and incubated for 10 minutes to stabilize the luminescent signal. Similar to the Kinase-Glo assay reagent, this reagent contains both luciferase enzyme and its substrate luciferin. Luciferase, activated by ATP in the cell lysate, catalyzes the conversion of luciferin to oxyluciferin, a reaction which produces light. The amount of light produced is proportionate to the amount of ATP in the cell lysate, which is itself proportional to cell number and gives an index of cellular proliferation.
as §3, with “Various compounds of the invention, including (IV-1-3) (also referred to as HPK16), (III-1-3) (also referred to as HPK56), (III-1-4) (also referred to as HPK57), (III-1-5) (also referred to as HPK59), and (II-2-7) (also referred to as HPK61) were tested for activity against GIST tumor cells using the GIST882 cell line. Briefly,” for “Briefly,”

c-Kit = c-Kit (Homo sapiens, UniProt P10721); assay: Autophosphorylation assay with γ-32P-ATP; assay type: biochemical; settings: FIG. 28A
Experimental: Enzymes were incubated with the appropriate concentration of inhibitor and radiolabeled γ-^32P-ATP. After 30 minutes, the reaction mixtures were electrophoresed on an acrylamide gel and autophosphorylation, quantitated by the amount of radioactivity incorporated into the enzyme, was assayed.

Sequence of c-Kit (P10721 26-976): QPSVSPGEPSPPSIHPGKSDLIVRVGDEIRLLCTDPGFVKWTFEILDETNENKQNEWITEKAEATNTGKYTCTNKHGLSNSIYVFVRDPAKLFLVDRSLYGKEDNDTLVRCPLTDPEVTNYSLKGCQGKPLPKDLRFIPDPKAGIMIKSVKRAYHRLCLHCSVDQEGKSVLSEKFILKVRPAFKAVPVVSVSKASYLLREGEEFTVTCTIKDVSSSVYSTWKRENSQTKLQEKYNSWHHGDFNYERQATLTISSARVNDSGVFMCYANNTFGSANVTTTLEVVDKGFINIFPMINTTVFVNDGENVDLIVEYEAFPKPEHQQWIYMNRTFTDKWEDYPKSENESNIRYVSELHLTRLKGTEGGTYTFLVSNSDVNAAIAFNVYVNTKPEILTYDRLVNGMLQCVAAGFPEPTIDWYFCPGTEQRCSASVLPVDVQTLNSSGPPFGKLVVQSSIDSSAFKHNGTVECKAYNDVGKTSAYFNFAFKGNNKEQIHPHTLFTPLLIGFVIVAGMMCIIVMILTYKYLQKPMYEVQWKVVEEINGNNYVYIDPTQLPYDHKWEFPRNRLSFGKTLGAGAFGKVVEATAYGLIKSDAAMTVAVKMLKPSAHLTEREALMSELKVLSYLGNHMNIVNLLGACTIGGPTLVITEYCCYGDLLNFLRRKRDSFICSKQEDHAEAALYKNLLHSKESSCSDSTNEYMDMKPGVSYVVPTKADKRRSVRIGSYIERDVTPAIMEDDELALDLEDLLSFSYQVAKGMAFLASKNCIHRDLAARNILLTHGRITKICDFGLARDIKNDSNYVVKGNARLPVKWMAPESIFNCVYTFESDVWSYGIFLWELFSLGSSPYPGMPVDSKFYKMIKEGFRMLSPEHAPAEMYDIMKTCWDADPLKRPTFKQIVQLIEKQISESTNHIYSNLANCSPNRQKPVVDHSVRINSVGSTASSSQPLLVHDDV

In the case of `COc1cc2[nH]c3ncnc(N4CCN(C(=S)NCc5ccc6c(c5)OCO6)CC4)c3c2cc1OC` [HPK61, 4-(6,7-Dimethoxy-9H-1,3,9-triaza-fluoren-4-yl)-piperazine-1-carbothioic acid (benzo[1,3]dioxol-5-ylmethyl)-amide], the “cells alive at day 4” value (GIST882 cell line [1]; GIST882, day 4) is reported as 5%, the IC50 (GIST882 cell line [1]; Homo sapiens, 96 h, GIST882, 4 days, read-out: IC50 c-kit GIST882) is reported as 0.45 µM and the IC50 (PANC-1 cells) is reported as 16 µM. The IC50 [2] was 15.5 to 16 µM, the “inhibitory activity in GIST882 cell line (in words)” value (GIST882 cell line [3]; FIG. 29, 96 hours) was “highest inhibitory activity” and the IC50 (GIST882 cell line [3]; Homo sapiens, GIST882, 96 hours) was 0.45 µM. For the same compound, the “inhibition of c-Kit autophosphorylation (in words)” value (c-Kit) was “dose-dependent”.
